In patent US20140228435A1, “COMPOSITION AND METHOD OF SYNTHESIZING A BIOMOLECULE AND ITS THERAPEUTICS APPLICATIONS” (priority 2013, published 2014):
“And” between values parts separate entries of the source, which are not always exact repeats. Equal entries are not always repeated. Where two headings read alike, the source gives them in different places.

Key:
[1] = system: fatty tissue; test: Triceps skin fold (TSF) thickness by caliper at right mid-upper arm, one-year volunteer trial; assay type: in vivo, human volunteers
Method: (§1) According to an embodiment of the embodiments herein, N(omega)′-protonated L-arginine was chemically converted into J-Factor ex-vivo. To prevent synthetic J-factor from damaging the alimentary canal after oral administration, it was formulated at a pH value that is safe for the canal like 7.0 which is the safest pH. Then, converted/synthetic produced ex-vivo J-Factor was orally administrated to a small group of 11 volunteers for one year. Each volunteers were given 0.5 mg per 10 days (=1.5 mg/month) and photographs were taken in each case to record the changes in their faces and heads.
(§2) In addition, to eliminate other factors probably influencing results during the trial, they were prevented from exercising and changing previous food schedule such as meat except the J-Factor. Their intake of meat was at least 200 gram per day in the food schedule before the trial and wouldn't change during the trial. Because the amount of N(omega)′-protonated L-arginine in raw meat is more than 1%, their intake of N(omega)′-protonated L-arginine was more than 60000 mg per month through meat without change before and during the trial, which was more than 40000 times the J-Factor intake. Anyway, one-third of N (omega)′-protonated L-arginine is chemically converted into J-Factor and they can't separated from each other. Thus, regardless of food L-arginine, Each volunteer took N(omega)′-protonated L-arginine 3 mg per month together with J-Factor that was less than 1/20000 times the N(omega)′-protonated L-arginine intake through meat without change before and during the trial. Therefore, the physical changes observed in the volunteers weren't caused by N(omega)′-protonated L-arginine.
Anyway, the triceps skin fold (TSF) thickness was measured in millimetres with the caplier at the mid-back of the right mid-upper arm [mid-point between the tip of the shoulder and the tip of the elbow (olecranon process and the acromium)] to evaluate the change in fatty tissue during the trial. The amounts measured and calculated are listed below: […]

[2] = Acid dissociation constants (pKa), with van't Hoff temperature calculation; assay type: physicochemical
Method: Furthermore, the deprotonation of the guanidinium and N(delta)-protonated diaminomethyleneamino groups is endothermic and reversible. Therefore the results are as follows. • 1—At pH less than 7.48 together with 25° C. or less, the concentration of their deprotonated form in the side chain is too little and insignificant to be chemically considered. • 2—Under physiological conditions (pH 7.40 and 37° C.) of a living body, the concentration of L-2-amino-5-diaminomethyleneamino-pentanoic acid not protonated in the side chain and a extremely weak stimulator for autocrine-paracrine IGF-1, is too little and insignificant to stimulates synthesis and secretion of the IGF-1. • 3—At pH less than 7.48 together with 25° C. or less and under physiological conditions (pH 7.40 and 37° C.), 1-arginine and L-2-amino-5-diaminomethyleneamino-pentanoic acid is practically as protonated in the side chain.
In addition, it has a Pka of 8.39 in the protonated 2-amino group at 37° C. calculated based on the integrated form of the van't Hoff equation and ΔH°=43.8 kj/mol=[…] in the deprotonation of the protonated 2-amino group. Consequently, with respect to/regarding the Henderson-Hasselbalch equation, the formula of the J Factor is as follows: • 1—At 25° C., the dominant structural formula of J-Factor at pH more than 2.17 and less than 9.04 is as follows:
Further, in the conversion of N(omega)′-protonated L-arginine to Larginine and a proton, K (equilibrium constant)=Ka (acid dissociation constant). Consequently, the integrated form of the van't Hoff equation is changed as follows:
Log(Ka2/Ka1)=(ΔH°/R)(1/T1−1/T2)
wherein Ka1 is the acid dissociation constant at absolute temperature T1, Ka2 is the acid dissociation constant at absolute temperature T2. Now, the calculated ratios of Ka2 at 100° C., 75° C., 50° C., 37° C. and 30° C. to Ka1 at 25° C. and their pKa's in the conversion are given below, where pKa is a minus the logarithm of the acid dissociation constant. • 1—At 100° C.: […]

[3] = Complications and safety, synthetic J-Factor in the 11 volunteers compared with biosynthetic GH; assay type: in vivo, human volunteers
Method: as §1
In fact, all of the above mentioned changes help in preventing or limiting the aging signs. The advantage of using ex-vivo synthesized J-Factor of the embodiments herein when compared to biosynthetic GH is shown in the comparative table below: […]

[4] = system: IGF-1mRNA; test: Expression of IGF-1mRNA in fatty tissue of mid-upper arm by real-time RT-PCR; assay type: in vivo, human volunteers
Method: as §1
as §2, with “Therefore, the physical changes observed in the volunteers weren't caused by N(omega)′-protonated L-arginine.” left out
It's clear that any composition that stimulates the synthesis and secretion of autocrine-paracrine IGF-1 performs it only through increasing the expression of IGF-1mRNA in the cell. Therefore, the expression of IGF-1mRNA was measured in the fatty tissue at the mid-back of the mid-upperarm of the volunteers by real-time RT-PCR (Reverse transcription-polymerase chain reaction) at the beginning and end of the trial and the following numbers were obtained: […]

[5] = system: eye's central vision; test: Eye's central vision examined with the E-chart, one-year volunteer trial; assay type: in vivo, human volunteers; parameters: scale not given here; conditions: one value per volunteer
Method: as §1, §2
Eye' central vision was examined with the E-chart and the following numbers were measured and concluded: […]

[6] = cited from earlier work
[7] = Physical changes observed in volunteers after one year (photographs of faces and heads); assay type: in vivo, human volunteers; conditions: each volunteer after one year of oral J-Factor
Method: as §1, §2

[8] = system: muscle (muscular hypertrophy); test: Mid-upper arm circumference (MUAC) and muscle circumference (MUAMC), muscular hypertrophy, one-year volunteer trial; assay type: in vivo, human volunteers
Method: as §1, §2
It's derived in cm from the MUAC (mid-upper arm circumference) in cm and the TSF (triceps skin fold) in mm according to the formula “MUAMC=MUAC−(π×TSF/10)”. Finally, the following numbers were measured and concluded: […]

[9] = Second trial (second year): J-Factor withdrawn, unconverted N(omega)′-protonated L-arginine given; assay type: in vivo, human volunteers; conditions: 1.5 mg per 10 days
Method: After the first year, the applicant withdrew J-Factor and would give the initial N(omega)′protonated L-arginine (reactant) not converted to J-Factor 1.5 mg per 10 days to each volunteer without any other changes and wouldn't make them aware, in order to better compare the reactant and J-Factor.

[10] = biosynthetic GH, comparison; cited from earlier work
[11] = sum of 11 volunteers, Start to End
[12] = Start to End (one year), one value per volunteer

## NC(N)=NCCCC(N)C(=O)O [J-Factor, N(delta)-protonated L-2-amino-5-diaminomethyleneamino-pentanoic acid]
[1]; J-Factor 0.5 mg per 10 days orally, End = one year after the start, one value per volunteer (11)
  TSF (mm) End: 20 mm and 3 mm (2×) and 7 mm and 10 mm (2×) and 12 mm and 14 mm and 13 mm (2×) and 17 mm
[1]; Start to End (one year), J-Factor 0.5 mg per 10 days orally, one value per volunteer
  TSF (mm) Decrease: 18 mm and 3 mm and 4 mm (2×) and 6 mm and 5 mm (2×) and 7 mm (3×) and 19 mm
[1]; [11]
  TSF (mm) Decrease, sum: 85 mm
  TSF Decrease, percent of sum: (41.7%)
[1]; sum of 11 volunteers, one year after the start (Start sum 207)
  TSF (mm) End, sum: 122 mm
[2]; pKa of guanidinium / N(delta)-protonated diaminomethyleneamino group
  pKa: 11.7
[2]; pKa of protonated 2-amino group
  pKa: 8.39
[3]; in the 11 volunteers
  complications such as joint swelling, carpal tunnel syndrome or joint pain: invention showed no complications
[3]; synthetic J-Factor
  antigenicity: Non-antigenic
  diabetogenicity: Non-diabetogenic
[4]; [12]
  IGF-1 mRNA increase: yes
[4]; conclusion from one-year trial with ex-vivo synthesized J-Factor
  IGF-1 production: stimulated IGF-1 production
[4]; fatty tissue at mid-back of mid-upper arm, one year after the start, one value per volunteer
  IGF-1 mRNA (copy/mg) End: 1.8 × 10^7 copy/mg and 7.7 × 10^7 copy/mg and 1.2 × 10^10 copy/mg and 9.2 × 10^6 copy/mg and 7.2 × 10^8 copy/mg and 6.0 × 10^8 copy/mg and 2.1 × 10^9 copy/mg and 1.0 × 10^10 copy/mg and 5.2 × 10^7 copy/mg and 6.3 × 10^6 copy/mg and 1.1 × 10^9 copy/mg
[5]; Start to End (one year)
  Left Eye' central vision increase: ZERO (2×) and 1 (4×) and 9 and 3 (2×) and 2 (2×)
  Right Eye' central vision increase: ZERO (3×) and 1 (2×) and 3 and 2 (4×) and 4
[5]; one year after the start
  Left Eye' central vision End: 10 (8×) and 9 and 3 and 5
  Right Eye' central vision End: 10 (8×) and 8 and 6 and 3
[6]; room temperature (25° C.)
  pKa of carboxyl group: 2.17
  pKa of guanidinium / N(delta)-protonated diaminomethyleneamino group: 12.48
  pKa of protonated 2-amino group: 9.04
[7]
  change in fatty tissue e.g. in abdomen: decrease in fatty tissue e.g. in abdomen
  eye's central vision: improvement in eye's central vision
  hair growth: hair growth
  muscular hypertrophy: muscular hypertrophy
  tone and color of facial skin: improved tone and color of facial skin
[8]; MUAMC=MUAC−(π×TSF/10), one year after the start, one value per volunteer
  MUAMC (cm) End: 21.2 cm and 24.7 cm and 28.1 cm and 29.5 cm and 19.9 cm and 27.7 cm and 26.9 cm and 27.2 cm and 24.1 cm and 24.0 cm and 21.6 cm
[8]; [12]
  MUAMC (cm) increase: 1.7 cm and 1.3 cm and 2.0 cm (2×) and 2.1 cm (2×) and 1.1 cm and 2.7 cm and 1.8 cm and 2.8 cm and 2.4 cm
[8]; right arm, one year after the start, J-Factor 0.5 mg per 10 days orally, one value per volunteer
  MUAC (cm) End: 27.5 cm and 25.6 cm and 29.0 cm and 31.7 cm and 23.0 cm and 31.5 cm and 30.0 cm and 31.6 cm and 28.2 cm and 29.3 cm and 25.9 cm
[8]; [11]
  MUAMC (cm) increase, sum: 22.0 cm
  MUAMC increase, percent of sum: (8.7%)
[8]; sum of 11 volunteers, one year after the start (Start sum 252.9)
  MUAMC (cm) End, sum: 274.9 cm

## N=C(N)NCCCC(N)C(=O)O [N(omega)′-protonated L-arginine]
[9]; after withdrawal of J-Factor, volunteers not aware
  physical changes during the second year: the physical changes would return
[9]; conclusion from second trial
  IGF-1 production: don't stimulated IGF-1 production
[2]; pKa of N(omega)′-protonated guanidino group
  pKa: 8.3
[6]; room temperature (25° C.)
  pKa of guanidinium / N(delta)-protonated diaminomethyleneamino group: 12.48

## NC(N)=O [protonated urea]
[6]; 25° C., protonated urea
  pKa: 0.18

## Biosynthetic GH: biosynthetic growth hormone, comparator in the advantage table
[10]
  antigenicity: Antigenic
  complications: Joint swelling Carpal tunnel
  diabetogenicity: Diabetogenic
